Molecules are shown by their SMILES. Where two headings read alike, the source gives them in different places.

Data on ten molecules can be found in patent publication US20250313572A1, “MACROCYCLIC MCL-1 INHIBITORS AND METHODS OF USE” (AbbVie Inc., priority 2017, published 2025).

One experiment addresses GST-MCL-1 (Homo sapiens, UniProt Q07820). In words: TR-FRET MCL-1 binding assay (competition with probe F-Bak). The procedure, abridged:
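Test compounds, 11 three-fold dilutions from 25 μM final, incubated 2 hours at room temperature with GST-MCL-1, F-Bak probe and Tb-anti-GST antibody. TR-FRET read at 340/35 nm excitation with 520/525 and 495/510 nm emission. Run without human serum and with 10% HS.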

The subject of experiment [1] is AMO-1 human multiple myeloma tumor cell line. The experiment in a line: AMO-1 cell viability assay (CellTiter-Glo, 24 hours). It counts as cell-based. A general note: Cellular ATP, detected with luciferase, serves as a proxy for viable cell number.
Experiment [2] concerns NCI-H929 human multiple myeloma tumor cell line. In words: NCI-H929 cell viability assay (CellTiter-Glo, 24 hours). It counts as cell-based.
Where [3] appears, read: MCL-1 Binding Ki (nM, 10% HS), in the presence of 10% HS (human serum).
[4] abbreviates: without HS, read-out: MCL-1 Binding Ki.
The mark [5] stands for this setting: Homo sapiens, AMO1, 24 h, read-out: AMO-1 Viability IC50 (μM, 10% FBS), 10% FBS, 24 hours of compound treatment.
Setting [6] is: Homo sapiens, NCI-H929, 24 h, read-out: H929 Viability IC50 (μM, 10% FBS), 10% FBS, 24 hours of compound treatment.
The mark [7] stands for this setting: read-out: AMO-1 Viability IC50 (μM, 10% FBS), 10% FBS, 24 hours of compound treatment.
[8] abbreviates: read-out: H929 Viability IC50 (μM, 10% FBS), 10% FBS, 24 hours of compound treatment.

Sequence of GST-MCL-1 (Q07820 whole entry): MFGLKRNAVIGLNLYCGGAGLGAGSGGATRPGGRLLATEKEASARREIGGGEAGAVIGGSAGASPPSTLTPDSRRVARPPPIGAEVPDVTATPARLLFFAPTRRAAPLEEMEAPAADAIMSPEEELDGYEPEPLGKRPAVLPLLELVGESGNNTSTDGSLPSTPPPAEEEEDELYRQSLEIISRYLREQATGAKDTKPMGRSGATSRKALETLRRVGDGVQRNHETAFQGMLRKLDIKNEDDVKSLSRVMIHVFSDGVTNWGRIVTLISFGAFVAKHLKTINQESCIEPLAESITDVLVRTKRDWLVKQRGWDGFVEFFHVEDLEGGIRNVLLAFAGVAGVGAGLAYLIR

Broadly, the Ki is a dissociation constant, usually derived from enzyme kinetics or from competition with a known ligand. As usually defined, the IC50 is the concentration that inhibits the measured activity by half. In the case of `COCCOCCOCCOCCOCCOCC1(c2nccc(COc3ccc4cc3C[C@H](C(=O)O)Oc3ncnc5sc(-c6ccc(F)cc6)c(c35)-c3c(C)c(Cl)c(c(Cl)c3C)O[C@H](CN3CCN(C)CC3)CO4)n2)CCC1` [Example 59, (7R,16R)-19,23-dichloro-1-(4-fluorophenyl)-10-({2-[1-(2,5,8,11,14,17-hexaoxaoctadecan-1-yl)cyclobutyl]pyrimidin-4-yl}methoxy)-20,22-dimethyl-16-[(4-methylpiperazin-1-yl)methyl]-7,8,15,16-tetrahydro-18,21-etheno-13,9-(metheno)-6,14,17-trioxa-2-thia-3,5-diazacyclononadeca[1,2,3-cd]indene-7-carboxylic Acid], the inhibitory constant (Ki) at GST-MCL-1 (setting [3]) was determined as 0.122 nM; on GST-MCL-1 (setting [4]), 0.047 nM. Also, the IC50 in experiment [1] (setting [5]) is 0.000686 µM; in experiment [2] (setting [6]), 0.000848 µM.
On to `CO[C@H]1O[C@H](COc2ccc(-c3nccc(COc4ccc5cc4C[C@H](C(=O)O)Oc4ncnc6sc(-c7ccc(F)cc7)c(c46)-c4ccc(c(Cl)c4C)CN(CCN4CCN(C)CC4)C5)n3)cc2)[C@@H](OC)[C@H](OC)[C@@H]1OC` [Example 11, methyl 6-O-{4-[4-({[(7R,20S)-7-carboxy-18-chloro-1-(4-fluorophenyl)-19-methyl-15-[2-(4-methylpiperazin-1-yl)ethyl]-7,8,15,16-tetrahydro-14H-17,20-etheno-13,9-(metheno)-6-oxa-2-thia-3,5,15-triazacyclooctadeca[1,2,3-cd]inden-10-yl]oxy}methyl)pyrimidin-2-yl]phenyl}-2,3,4-tri-O-methyl-a-D-mannopyranoside], for which the values for the inhibition constant Ki on GST-MCL-1 (setting [3]) and at GST-MCL-1 (setting [4]) were 2.34 nM and 0.374 nM, respectively. Moreover, the IC50 in experiment [1] (setting [5]) turned out to be 0.363 µM; in experiment [2] (setting [6]) it was 0.514 µM.
With `COCCOCCOCCO[C@H]1CC[C@@H](c2nccc(COc3ccc4cc3C[C@H](C(=O)O)Oc3ncnc5sc(-c6ccc(F)cc6)c(c35)-c3c(C)c(Cl)c(c(Cl)c3C)O[C@H](CN3CCN(C)CC3)CO4)n2)CC1` [Example 70, (7R,16R)-19,23-dichloro-1-(4-fluorophenyl)-10-({2-[(1s,4s)-4-{2-[2-(2-methoxyethoxy)ethoxy]ethoxy}cyclohexyl]pyrimidin-4-yl}methoxy)-20,22-dimethyl-16-[(4-methylpiperazin-1-yl)methyl]-7,8,15,16-tetrahydro-18,21-etheno-13,9-(metheno)-6,14,17-trioxa-2-thia-3,5-diazacyclononadeca[1,2,3-cd]indene-7-carboxylic Acid], the Ki is 0.083 nM on GST-MCL-1 (setting [3]) and 0.012 nM on GST-MCL-1 (setting [4]). For the same molecule, the IC50 in experiment [1] (setting [5]) came to 0.000263 µM; in experiment [2] (setting [6]), 0.000489 µM.
As for `COCCOCCOCCOCC1(C)CC=C(c2nccc(COc3ccc4cc3C[C@H](C(=O)O)Oc3ncnc5sc(-c6ccc(F)cc6)c(c35)-c3c(C)c(Cl)c(c(Cl)c3C)O[C@H](CN3CCN(C)CC3)CO4)n2)CC1` (single isomer, unassigned) [Example 119, (7R,16R)-19,23-dichloro-1-(4-fluorophenyl)-20,22-dimethyl-16-[(4-methylpiperazin-1-yl)methyl]-10-({2-[(4S*)-4-methyl-4-(2,5,8,11-tetraoxadodecan-1-yl)cyclohex-1-en-1-yl]pyrimidin-4-yl}methoxy)-7,8,15,16-tetrahydro-18,21-etheno-13,9-(metheno)-6,14,17-trioxa-2-thia-3,5-diazacyclononadeca[1,2,3-cd]indene-7-carboxylic Acid], the Ki is 0.16 nM at GST-MCL-1 (setting [3]) and 0.004 nM at GST-MCL-1 (setting [4]). The IC50 was determined as 0.000181 µM in experiment [1] (setting [7]) and 0.000333 µM in experiment [2] (setting [8]).
Turning to `Cc1c(Cl)c2c(Cl)c(C)c1-c1c(-c3ccc(F)cc3)sc3ncnc(c13)O[C@@H](C(=O)O)Cc1cc(ccc1OCc1ccnc(N3CCC(CC(=O)O)CC3)n1)OC[C@@H](CN1CCN(C)CC1)O2` [Example 49, (7R,16R)-10-({2-[4-(carboxymethyl)piperidin-1-yl]pyrimidin-4-yl}methoxy)-19,23-dichloro-1-(4-fluorophenyl)-20,22-dimethyl-16-[(4-methylpiperazin-1-yl)methyl]-7,8,15,16-tetrahydro-18,21-etheno-13,9-(metheno)-6,14,17-trioxa-2-thia-3,5-diazacyclononadeca[1,2,3-cd]indene-7-carboxylic Acid], the Ki turned out to be 0.775 nM at GST-MCL-1 (setting [3]) and 0.039 nM on GST-MCL-1 (setting [4]). In addition, the half-inhibitory concentration (IC50) in experiment [1] (setting [5]) worked out at 0.0222 µM; in experiment [2] (setting [6]), 0.0431 µM.
In the same order, the values of `CO[C@H]1O[C@H](COc2ccc(-c3nccc(COc4ccc5cc4C[C@H](C(=O)O)Oc4ncnc6sc(-c7ccc(F)cc7)c(c46)-c4ccc(c(Cl)c4C)CN(CCN4CCN(C)CC4)C5)n3)cc2)[C@@H](O)[C@H](O)[C@H]1O` [Example 9, methyl 6-O-{4-[4-({[(7R,20S)-7-carboxy-18-chloro-1-(4-fluorophenyl)-19-methyl-15-[2-(4-methylpiperazin-1-yl)ethyl]-7,8,15,16-tetrahydro-14H-17,20-etheno-13,9-(metheno)-6-oxa-2-thia-3,5,15-triazacyclooctadeca[1,2,3-cd]inden-10-yl]oxy}methyl)pyrimidin-2-yl]phenyl}-a-D-glucopyranoside] are 0.296 nM, 0.048 nM, 0.732 µM and more than 1 µM.
Consider `COCCOCCOCCOCCOCCOCC1(C)CC=C(c2nccc(COc3ccc4cc3C[C@H](C(=O)O)Oc3ncnc5sc(-c6ccc(F)cc6)c(c35)-c3c(C)c(Cl)c(c(Cl)c3C)O[C@H](CN3CCN(C)CC3)CO4)n2)CC1` (single isomer, unassigned) [Example 85, (7R,16R)-19,23-dichloro-1-(4-fluorophenyl)-10-({2-[(4S*)-4-(2,5,8,11,14,17-hexaoxaoctadecan-1-yl)-4-methylcyclohex-1-en-1-yl]pyrimidin-4-yl}methoxy)-20,22-dimethyl-16-[(4-methylpiperazin-1-yl)methyl]-7,8,15,16-tetrahydro-18,21-etheno-13,9-(metheno)-6,14,17-trioxa-2-thia-3,5-diazacyclononadeca[1,2,3-cd]indene-7-carboxylic Acid], for which the Ki on GST-MCL-1 (setting [3]) amounted to 0.191 nM; on GST-MCL-1 (setting [4]), 0.029 nM. The half-maximal inhibitory concentration (IC50) in experiment [1] (setting [7]) amounted to 0.000198 µM; in experiment [2] (setting [8]), 0.000485 µM.
For `Cc1c(Cl)c2c(Cl)c(C)c1-c1c(-c3ccc(F)cc3)sc3ncnc(c13)O[C@@H](C(=O)O)Cc1cc(ccc1OCc1ccnc(-c3ccc(OC(=O)N4CCOCC4)cc3)n1)OC[C@@H](CN1CCN(C)CC1)O2` [Example 151, (7R,16R)-19,23-dichloro-1-(4-fluorophenyl)-20,22-dimethyl-16-[(4-methylpiperazin-1-yl)methyl]-10-[(2-{4-[(morpholine-4-carbonyl)oxy]phenyl}pyrimidin-4-yl)methoxy]-7,8,15,16-tetrahydro-18,21-etheno-9,13-(metheno)-6,14,17-trioxa-2-thia-3,5-diazacyclononadeca[1,2,3-cd]indene-7-carboxylic Acid], the inhibitory constant (Ki) worked out at 0.325 nM at GST-MCL-1 (setting [3]) and 0.01 nM on GST-MCL-1 (setting [4]). In addition, the IC50 in experiment [1] (Homo sapiens, AMO1, read-out: AMO-1 Viability IC50 (μM), 10% FBS, 24 hours of compound treatment) came out at 0.000303 µM; in experiment [2] (Homo sapiens, NCI-H929, read-out: H929 Viability IC50 (μM), 10% FBS, 24 hours of compound treatment), 0.000735 µM.
Turning to `Cc1c(Cl)c2c(Cl)c(C)c1-c1c(-c3ccc(F)cc3)sc3ncnc(c13)O[C@@H](C(=O)O)Cc1cc(ccc1OCc1ccnc(-c3ccc(OCCN4CC5(COC5)C4)cc3)n1)OC[C@@H](CN1CCN(C)CC1)O2` [Example 165, (7R,16R)-19,23-dichloro-1-(4-fluorophenyl)-20,22-dimethyl-16-[(4-methylpiperazin-1-yl)methyl]-10-[(2-{4-[2-(2-oxa-6-azaspiro[3.3]heptan-6-yl)ethoxy]phenyl}pyrimidin-4-yl)methoxy]-7,8,15,16-tetrahydro-18,21-etheno-13,9-(metheno)-6,14,17-trioxa-2-thia-3,5-diazacyclononadeca[1,2,3-cd]indene-7-carboxylic Acid], the inhibition constant (Ki) at GST-MCL-1 (setting [3]) was found to be 0.267 nM; on GST-MCL-1 (setting [4]), 0.031 nM. Further, the results for the half-inhibitory concentration (IC50) in experiment [1] (setting [5]) and in experiment [2] (setting [6]) were 0.00353 µM and 0.00856 µM, respectively.
For `Cc1c(Cl)c2c(Cl)c(C)c1-c1c(-c3ccc(F)cc3)sc3ncnc(c13)O[C@@H](C(=O)O)Cc1cc(ccc1OCc1ccnc(-c3ccc(CN4CCOCCOCCOCCOCC4)cc3)n1)OC[C@@H](CN1CCN(C)CC1)O2` [Example 129, (7R,16R)-19,23-dichloro-1-(4-fluorophenyl)-20,22-dimethyl-16-[(4-methylpiperazin-1-yl)methyl]-10-[(2-{4-[(1,4,7,10-tetraoxa-13-azacyclopentadecan-13-yl)methyl]phenyl}pyrimidin-4-yl)methoxy]-7,8,15,16-tetrahydro-18,21-etheno-13,9-(metheno)-6,14,17-trioxa-2-thia-3,5-diazacyclononadeca[1,2,3-cd]indene-7-carboxylic Acid], in that order: 0.064 nM, 0.002 nM, 0.000144 µM and 0.000562 µM.
